Source: patent publication US20100216834A1, “HIV INTEGRASE INHIBITORS” (priority 2006, published 2010)
Where two headings read alike, the source gives them in different places.

Columns and labels:
[1] = test system: HIV; test: Assay for inhibition of HIV replication (spread assay): acute HIV infection of T-lymphoid cells; format: cell-based
Protocol: Assays for the inhibition of acute HIV infection of T-lymphoid cells were conducted in accordance with Vacca, J. P. et al., Proc. Natl. Acad. Sci. USA 1994, 91: 4096. […] For example, the compounds of Examples 1 to 3 were tested in this assay and found to have the following IC95 values: […]

[2] = target: T1, recombinant integrase (HIV integrase) (Human immunodeficiency virus type 1 group M subtype B, UniProt P04585); test: HIV integrase assay: strand transfer catalyzed by recombinant integrase; format: biochemical
T1 construct: Strand Transfer Catalyzed by Recombinant Integrase
Protocol: Assays for the strand transfer activity of integrase were conducted in accordance with WO 02/30930 for recombinant integrase. […] For example, the compounds prepared in Examples 1 to 3 were tested in the integrase assay and found to have the following IC50 values:
Further description on conducting the assay using preassembled complexes is found in Wolfe, A. L. et al., J. Virol. 1996, 70: 1424-1432, Hazuda et al., J. Virol. 1997, 71: 7005-7011; Hazuda et al., Drug Design and Discovery 1997, 15: 17-24; and Hazuda et al., Science 2000, 287: 646-650.

[3] = IC50 (inhibition of strand transfer activity)

| SMILES | IC95 in the presence of 10% FBS [1] | IC50 [2, 3] | IC50 ([2]; read-out: IC50 (inhibition of strand transfer activity)) |
| --- | --- | --- | --- |
| CC1CCCN(C)C(=O)c2c3c(c(O)c(=O)n21)C(=O)N(Cc1ccc(F)c(Cl)c1)CC3 (single isomer, unassigned) [Ex. 3 - Diasteromer A-3, 11-(3-Chloro-4-fluorobenzyl)-9-hydroxy-2,6-dimethyl-3,4,5,6,12,13-hexahydro-2H[1,4]diazocino[2,1-a]-2,6-naphthyridine-1,8,10(11H)-trione] | 125 nM | 17 nM | – |
| CC1CCCN(C)C(=O)c2c3c(c(O)c(=O)n21)C(=O)N(Cc1ccc(F)c(Cl)c1)CC3 (single isomer, unassigned) [Ex. 3 - Diasteromer C-3, 11-(3-Chloro-4-fluorobenzyl)-9-hydroxy-2,6-dimethyl-3,4,5,6,12,13-hexahydro-2H[1,4]diazocino[2,1-a]-2,6-naphthyridine-1,8,10(11H)-trione] | 250 nM | 8 nM | – |
| CC1CCCN(C)C(=O)c2c3c(c(O)c(=O)n21)C(=O)N(Cc1ccc(F)c(Cl)c1)CC3 (single isomer, unassigned) [Ex. 3 - Diasteromer B-3, 11-(3-Chloro-4-fluorobenzyl)-9-hydroxy-2,6-dimethyl-3,4,5,6,12,13-hexahydro-2H[1,4]diazocino[2,1-a]-2,6-naphthyridine-1,8,10(11H)-trione] | 11 nM | 17 nM | – |
| CN1C[C@H](O)C(C)(C)Cn2c(c3c(c(O)c2=O)C(=O)N(Cc2ccc(F)c(Cl)c2)CC3)C1=O (single isomer, unassigned) [Ex. 1 - Isomer A-1] | 15 nM | 14 nM | – |
| CN1C[C@@H](O)C(C)(C)Cn2c(c3c(c(O)c2=O)C(=O)N(Cc2ccc(F)c(Cl)c2)CC3)C1=O (single isomer, unassigned) [Ex. 2] | 31 nM | – | 3 nM |
| CC1CCCN(C)C(=O)c2c3c(c(O)c(=O)n21)C(=O)N(Cc1ccc(F)c(Cl)c1)CC3 (single isomer, unassigned) [Ex. 3 - Diasteromer D-3, 11-(3-Chloro-4-fluorobenzyl)-9-hydroxy-2,6-dimethyl-3,4,5,6,12,13-hexahydro-2H[1,4]diazocino[2,1-a]-2,6-naphthyridine-1,8,10(11H)-trione] | 8 nM | 8 nM | – |
| CN1C[C@H](O)C(C)(C)Cn2c(c3c(c(O)c2=O)C(=O)N(Cc2ccc(F)c(Cl)c2)CC3)C1=O (single isomer, unassigned) [Ex. 1 - Isomer B-1] | 31 nM | 21 nM | – |
